# Experimental data taken from patent EP0238198A2, “Method of modifying the lipid structure function and expression of cell membranes and pharmaceutical compositions for use therein” (Habib, Nagy Adly, priority 1986, dated 1987).
# Where two headings read alike, the source gives them in different places.
# Test system: type 2 herpes simplex virus (HSV)
# Assay: HSV2 replication in human embryonic lung fibroblasts (virus yield)
# Assay type: cell-based, HSV type 2
# Details: for inhibition at 75 µM / inhibition at 25 µM / inhibition at 50 µM / inhibition at 100 µM: Human alphaherpesvirus 2, Fibroblast, 28 h
# Description: Stearic and iodinated stearic acids were assayed for their inhibitory effects on the replication of type 2 herpes simplex virus (HSV) in sub-confluent monolayer cultures of human embryonic lung fibroblasts. […] This was accomplished by reacting hydriodic acid with oleic acid in acetic acid at 20°C. Excess iodine was removed at the end of the reaction by the addition of an excess of sodium thiosulphate, and the product fatty acid was extracted into hexane.
# Bovine serum albumin conjugates of the fatty acids (prepared according to the method of A.A.Spector and-J.C.Hoak, J.Anal.Biochem. 1969, 32, 297-302) were added to the cell culture medium at various concentrations in the range 25 - 100 micromolar final concentration and at various times before and after (from 0 to 12 hours) infection with partially purified clinical isolates of HSV type 2, at a multiplicity of infection of 0.1 plaque forming units/cell.
# 28 hours after infection the titre of infectious virus in the culture supernatants was determined by standard infectious centre techniques on fresh human embryonic lung fibroblasts.
smiles,measurement,setting,value
"CCCCCCCCCCCCCCCCCC(=O)O [stearic acid, octadecanoic acid]",inhibition at 75 µM,"75 micromolar in the culture medium, cells treated for 3-4 hours before infection, read-out: maximum anti-viral activity (reduction in virus yield)",48%
same,inhibition at 25 µM,"stearic acid 25 µM, time relative to infection 0 hours, read-out: % reduction in virus yield compared with control cultures",0%
same,inhibition at 25 µM,"stearic acid 25 µM, time relative to infection 1 hours, read-out: % reduction in virus yield compared with control cultures",5%
same,inhibition at 25 µM,"stearic acid 25 µM, time relative to infection 2 hours, read-out: % reduction in virus yield compared with control cultures",0%
same,inhibition at 25 µM,"stearic acid 25 µM, time relative to infection 3 hours, read-out: % reduction in virus yield compared with control cultures",10%
same,inhibition at 25 µM,"stearic acid 25 µM, time relative to infection 4 hours, read-out: % reduction in virus yield compared with control cultures",1%
same,inhibition at 25 µM,"stearic acid 25 µM, time relative to infection 8 hours, read-out: % reduction in virus yield compared with control cultures",0%
same,inhibition at 25 µM,"stearic acid 25 µM, time relative to infection 12 hours, read-out: % reduction in virus yield compared with control cultures",3%
same,inhibition at 25 µM,"stearic acid 25 µM, time relative to infection -1 hours, read-out: % reduction in virus yield compared with control cultures",6%
same,inhibition at 25 µM,"stearic acid 25 µM, time relative to infection -2 hours, read-out: % reduction in virus yield compared with control cultures",14%
same,inhibition at 25 µM,"stearic acid 25 µM, time relative to infection -3 hours, read-out: % reduction in virus yield compared with control cultures",4%
same,inhibition at 25 µM,"stearic acid 25 µM, time relative to infection -4 hours, read-out: % reduction in virus yield compared with control cultures",2%
same,inhibition at 25 µM,"stearic acid 25 µM, time relative to infection -8 hours, read-out: % reduction in virus yield compared with control cultures",10%
same,inhibition at 25 µM,"stearic acid 25 µM, time relative to infection -12 hours, read-out: % reduction in virus yield compared with control cultures",0%
same,inhibition at 50 µM,"stearic acid 50 µM, time relative to infection 0 hours, read-out: % reduction in virus yield compared with control cultures",7%
same,inhibition at 50 µM,"stearic acid 50 µM, time relative to infection 1 hours, read-out: % reduction in virus yield compared with control cultures",8%
same,inhibition at 50 µM,"stearic acid 50 µM, time relative to infection 2 hours, read-out: % reduction in virus yield compared with control cultures",0%
same,inhibition at 50 µM,"stearic acid 50 µM, time relative to infection 3 hours, read-out: % reduction in virus yield compared with control cultures",10%
same,inhibition at 50 µM,"stearic acid 50 µM, time relative to infection 4 hours, read-out: % reduction in virus yield compared with control cultures",0%
same,inhibition at 50 µM,"stearic acid 50 µM, time relative to infection 8 hours, read-out: % reduction in virus yield compared with control cultures",5%
same,inhibition at 50 µM,"stearic acid 50 µM, time relative to infection 12 hours, read-out: % reduction in virus yield compared with control cultures",9%
same,inhibition at 50 µM,"stearic acid 50 µM, time relative to infection -1 hours, read-out: % reduction in virus yield compared with control cultures",27%
same,inhibition at 50 µM,"stearic acid 50 µM, time relative to infection -2 hours, read-out: % reduction in virus yield compared with control cultures",30%
same,inhibition at 50 µM,"stearic acid 50 µM, time relative to infection -3 hours, read-out: % reduction in virus yield compared with control cultures",27%
same,inhibition at 50 µM,"stearic acid 50 µM, time relative to infection -4 hours, read-out: % reduction in virus yield compared with control cultures",8%
same,inhibition at 50 µM,"stearic acid 50 µM, time relative to infection -8 hours, read-out: % reduction in virus yield compared with control cultures",0%
same,inhibition at 50 µM,"stearic acid 50 µM, time relative to infection -12 hours, read-out: % reduction in virus yield compared with control cultures",0%
same,inhibition at 75 µM,"stearic acid 75 µM, time relative to infection 0 hours, read-out: % reduction in virus yield compared with control cultures",18%
same,inhibition at 75 µM,"stearic acid 75 µM, time relative to infection 1 hours, read-out: % reduction in virus yield compared with control cultures",0%
same,inhibition at 75 µM,"stearic acid 75 µM, time relative to infection 2 hours, read-out: % reduction in virus yield compared with control cultures",9%
same,inhibition at 75 µM,"stearic acid 75 µM, time relative to infection 3 hours, read-out: % reduction in virus yield compared with control cultures",0%
same,inhibition at 75 µM,"stearic acid 75 µM, time relative to infection 4 hours, read-out: % reduction in virus yield compared with control cultures",3%
same,inhibition at 75 µM,"stearic acid 75 µM, time relative to infection 8 hours, read-out: % reduction in virus yield compared with control cultures",10%
same,inhibition at 75 µM,"stearic acid 75 µM, time relative to infection 12 hours, read-out: % reduction in virus yield compared with control cultures",5%
same,inhibition at 75 µM,"stearic acid 75 µM, time relative to infection -1 hours, read-out: % reduction in virus yield compared with control cultures",41%
same,inhibition at 75 µM,"stearic acid 75 µM, time relative to infection -2 hours, read-out: % reduction in virus yield compared with control cultures",38%
same,inhibition at 75 µM,"stearic acid 75 µM, time relative to infection -3 hours, read-out: % reduction in virus yield compared with control cultures",47%
same,inhibition at 75 µM,"stearic acid 75 µM, time relative to infection -4 hours, read-out: % reduction in virus yield compared with control cultures",48%
same,inhibition at 75 µM,"stearic acid 75 µM, time relative to infection -8 hours, read-out: % reduction in virus yield compared with control cultures",3%
same,inhibition at 75 µM,"stearic acid 75 µM, time relative to infection -12 hours, read-out: % reduction in virus yield compared with control cultures",8%
same,inhibition at 100 µM,"stearic acid 100 µM, time relative to infection 0 hours, read-out: % reduction in virus yield compared with control cultures",11%
same,inhibition at 100 µM,"stearic acid 100 µM, time relative to infection 1 hours, read-out: % reduction in virus yield compared with control cultures",14%
same,inhibition at 100 µM,"stearic acid 100 µM, time relative to infection 2 hours, read-out: % reduction in virus yield compared with control cultures",8%
same,inhibition at 100 µM,"stearic acid 100 µM, time relative to infection 3 hours, read-out: % reduction in virus yield compared with control cultures",11%
same,inhibition at 100 µM,"stearic acid 100 µM, time relative to infection 4 hours, read-out: % reduction in virus yield compared with control cultures",0%
same,inhibition at 100 µM,"stearic acid 100 µM, time relative to infection 8 hours, read-out: % reduction in virus yield compared with control cultures",7%
same,inhibition at 100 µM,"stearic acid 100 µM, time relative to infection 12 hours, read-out: % reduction in virus yield compared with control cultures",1%
same,inhibition at 100 µM,"stearic acid 100 µM, time relative to infection -1 hours, read-out: % reduction in virus yield compared with control cultures",30%
same,inhibition at 100 µM,"stearic acid 100 µM, time relative to infection -2 hours, read-out: % reduction in virus yield compared with control cultures",36%
same,inhibition at 100 µM,"stearic acid 100 µM, time relative to infection -3 hours, read-out: % reduction in virus yield compared with control cultures",35%
same,inhibition at 100 µM,"stearic acid 100 µM, time relative to infection -4 hours, read-out: % reduction in virus yield compared with control cultures",20%
same,inhibition at 100 µM,"stearic acid 100 µM, time relative to infection -8 hours, read-out: % reduction in virus yield compared with control cultures",0%
same,inhibition at 100 µM,"stearic acid 100 µM, time relative to infection -12 hours, read-out: % reduction in virus yield compared with control cultures",0%
same,virus yield,"stearic acid 25 µM, time relative to infection 1 hours",4.11 x 10^-3 / pfu ml^-1
same,virus yield,"stearic acid 25 µM, time relative to infection 2 hours",4.31 x 10^-3 / pfu ml^-1
same,virus yield,"stearic acid 25 µM, time relative to infection 3 hours",3.89 x 10^-3 / pfu ml^-1
same,virus yield,"stearic acid 25 µM, time relative to infection 4 hours",4.26 x 10^-3 / pfu ml^-1
same,virus yield,"stearic acid 25 µM, time relative to infection 8 hours",4.41 x 10^-3 / pfu ml^-1
same,virus yield,"stearic acid 25 µM, time relative to infection 12 hours",4.21 x 10^-3 / pfu ml^-1
same,virus yield,"stearic acid 25 µM, time relative to infection -1 hours",4.06 x 10^-3 / pfu ml^-1
same,virus yield,"stearic acid 25 µM, time relative to infection -2 hours",3.72 x 10^-3 / pfu ml^-1
same,virus yield,"stearic acid 25 µM, time relative to infection -3 hours",4.15 x 10^-3 / pfu ml^-1
same,virus yield,"stearic acid 25 µM, time relative to infection -4 hours",4.25 x 10^-3 / pfu ml^-1
same,virus yield,"stearic acid 25 µM, time relative to infection -8 hours",3.88 x 10^-3 / pfu ml^-1
same,virus yield,"stearic acid 25 µM, time relative to infection -12 hours",4.63 x 10^-3 / pfu ml^-1
same,virus yield,"stearic acid 50 µM, time relative to infection 0 hours",4.00 x 10^-3 / pfu ml^-1
same,virus yield,"stearic acid 50 µM, time relative to infection 1 hours",3.96 x 10^-3 / pfu ml^-1
same,virus yield,"stearic acid 50 µM, time relative to infection 2 hours",4.45 x 10^-3 / pfu ml^-1
same,virus yield,"stearic acid 50 µM, time relative to infection 3 hours",3.88 x 10^-3 / pfu ml^-1
same,virus yield,"stearic acid 50 µM, time relative to infection 4 hours",4.36 x 10^-3 / pfu ml^-1
same,virus yield,"stearic acid 50 µM, time relative to infection 8 hours",4.09 x 10^-3 / pfu ml^-1
same,virus yield,"stearic acid 50 µM, time relative to infection 12 hours",3.92 x 10^-3 / pfu ml^-1
same,virus yield,"stearic acid 50 µM, time relative to infection -1 hours",3.14 x 10^-3 / pfu ml^-1
same,virus yield,"stearic acid 50 µM, time relative to infection -2 hours",3.02 x 10^-3 / pfu ml^-1
same,virus yield,"stearic acid 50 µM, time relative to infection -3 hours",3.15 x 10^-3 / pfu ml^-1
same,virus yield,"stearic acid 50 µM, time relative to infection -4 hours",3.98 x 10^-3 / pfu ml^-1
same,virus yield,"stearic acid 50 µM, time relative to infection -8 hours",4.62 x 10^-3 / pfu ml^-1
same,virus yield,"stearic acid 50 µM, time relative to infection -12 hours",4.75 x 10^-3 / pfu ml^-1
same,virus yield,"stearic acid 75 µM, time relative to infection 0 hours",3.55 x 10^-3 / pfu ml^-1
same,virus yield,"stearic acid 75 µM, time relative to infection 1 hours",4.44 x 10^-3 / pfu ml^-1
same,virus yield,"stearic acid 75 µM, time relative to infection 2 hours",3.92 x 10^-3 / pfu ml^-1
same,virus yield,"stearic acid 75 µM, time relative to infection 3 hours",4.53 x 10^-3 / pfu ml^-1
same,virus yield,"stearic acid 75 µM, time relative to infection 4 hours",4.21 x 10^-3 / pfu ml^-1
same,virus yield,"stearic acid 75 µM, time relative to infection 8 hours",3.87 x 10^-3 / pfu ml^-1
same,virus yield,"stearic acid 75 µM, time relative to infection 12 hours",4.11 x 10^-3 / pfu ml^-1
same,virus yield,"stearic acid 75 µM, time relative to infection -1 hours",2.54 x 10^-3 / pfu ml^-1
same,virus yield,"stearic acid 75 µM, time relative to infection -2 hours",2.69 x 10^-3 / pfu ml^-1
same,virus yield,"stearic acid 75 µM, time relative to infection -3 hours",2.31 x 10^-3 / pfu ml^-1
same,virus yield,"stearic acid 75 µM, time relative to infection -4 hours",2.25 x 10^-3 / pfu ml^-1
same,virus yield,"stearic acid 75 µM, time relative to infection -8 hours",4.18 x 10^-3 / pfu ml^-1
same,virus yield,"stearic acid 75 µM, time relative to infection -12 hours",3.96 x 10^-3 / pfu ml^-1
same,virus yield,"stearic acid 100 µM, time relative to infection 0 hours",3.85 x 10^-3 / pfu ml^-1
same,virus yield,"stearic acid 100 µM, time relative to infection 1 hours",3.71 x 10^-3 / pfu ml^-1
same,virus yield,"stearic acid 100 µM, time relative to infection 2 hours",3.96 x 10^-3 / pfu ml^-1
same,virus yield,"stearic acid 100 µM, time relative to infection 3 hours",3.83 x 10^-3 / pfu ml^-1
same,virus yield,"stearic acid 100 µM, time relative to infection 4 hours",4.52 x 10^-3 / pfu ml^-1
same,virus yield,"stearic acid 100 µM, time relative to infection 8 hours",4.03 x 10^-3 / pfu ml^-1
same,virus yield,"stearic acid 100 µM, time relative to infection 12 hours",4.28 x 10^-3 / pfu ml^-1
same,virus yield,"stearic acid 100 µM, time relative to infection -1 hours",3.04 x 10^-3 / pfu ml^-1
same,virus yield,"stearic acid 100 µM, time relative to infection -2 hours",2.77 x 10^-3 / pfu ml^-1
same,virus yield,"stearic acid 100 µM, time relative to infection -3 hours",2.80 x 10^-3 / pfu ml^-1
same,virus yield,"stearic acid 100 µM, time relative to infection -4 hours",3.45 x 10^-3 / pfu ml^-1
same,virus yield,"stearic acid 100 µM, time relative to infection -8 hours",4.33 x 10^-3 / pfu ml^-1
same,virus yield,"stearic acid 100 µM, time relative to infection -12 hours",4.72 x 10^-3 / pfu ml^-1
